*1 amine or outer side, *2 acyl side, *3 side chain or, on linkers, in order; H or OH if unused. Where a SMILES comes first, the peptide text is derived from it. Bridges are numbered along the chain shown (N, C = ends). [ ]: non-standard residue; d: D form. X6 = O=C([C@H](Cc1c[nH]c2c(-c3cccc(OC(F)(F)F)c3)cccc12)N[*:1])[*:2]; X1 = O=C([C@H](Cc1c[nH]c2c(-c3cccc(C(F)(F)F)c3)cccc12)N[*:1])[*:2]; X3 = Cc1cccc(-c2cccc3c(C[C@H](N[*:1])C(=O)[*:2])c[nH]c23)c1; Trp(7-Ph) = N[C@@H](Cc1c[nH]c2c(-c3ccccc3)cccc12)C(=O)O; Abu(4-yl) = O=C([C@H](CC[*:3])N[*:1])[*:2]; 2Nal = N[C@@H](Cc1ccc2ccccc2c1)C(=O)O; Trp(7-thienyl) = 7-thienyl-tryptophan; AEF = NCCOc1ccc(C[C@H](N)C(=O)O)cc1; Pen = CC(C)(S)[C@H](N)C(=O)O; αMeK = C[C@](N)(CCCCN)C(=O)O; Abu = CC[C@H](N)C(=O)O
T1: interleukin-23 receptor (IL-23R), human (human, UniProt Q5VWK5 24-629)
T1 sequence (looked up): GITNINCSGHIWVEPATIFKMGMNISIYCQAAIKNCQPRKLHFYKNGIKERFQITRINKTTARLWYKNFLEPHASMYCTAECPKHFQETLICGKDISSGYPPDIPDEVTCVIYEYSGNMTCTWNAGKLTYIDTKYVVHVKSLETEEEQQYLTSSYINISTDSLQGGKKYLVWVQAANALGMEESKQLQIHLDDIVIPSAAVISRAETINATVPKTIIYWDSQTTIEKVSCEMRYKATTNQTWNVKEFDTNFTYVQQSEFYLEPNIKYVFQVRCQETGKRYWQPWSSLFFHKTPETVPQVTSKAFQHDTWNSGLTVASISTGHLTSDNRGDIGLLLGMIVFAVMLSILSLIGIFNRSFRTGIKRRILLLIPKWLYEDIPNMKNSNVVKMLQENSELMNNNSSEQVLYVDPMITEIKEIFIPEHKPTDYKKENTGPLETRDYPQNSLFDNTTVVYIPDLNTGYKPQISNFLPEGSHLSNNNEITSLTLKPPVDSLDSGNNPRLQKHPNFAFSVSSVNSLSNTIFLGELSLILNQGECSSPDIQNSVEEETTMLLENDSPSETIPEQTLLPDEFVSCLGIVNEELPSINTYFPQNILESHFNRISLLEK


Experiments:
[1] = tested on: Natural killer (NK) cells; type: cell-based, human
Description: Where not shown, data was not yet determined.

[2] = Stability in simulated intestinal fluid (SIF); type: in vitro ADME; settings: 37° C.; for half-life at 20 μM: pH 6.8, 100 fold dilution of standard SIF concentration, read-out: SIF t1/2 (converted); for SIF t1/2: 100 fold dilution of standard SIF concentration, 20 μM
Description: Studies were carried out in simulated intestinal fluid (SIF) and simulated gastric fluid (SGF) to evaluate gastric stability of the peptide inhibitors of the present invention. In addition, studies were carried out to assess redox stability of the peptide inhibitors of the present invention.
SIF was prepared by adding 6.8 g of monobasic potassium phosphate and 10.0 g of pancreatin to 1.0 L of water. After dissolution, the pH was adjusted to 6.8 using NaOH. DMSO stocks (2 mM) were first prepared for the test compounds. Aliquots of the DMSO solutions were dosed into 6 individual tubes, each containing 0.5 mL of SIF, which is pre-warmed to 37° C. The final test compound concentration was 20 μM. The vials were kept in a benchtop Thermomixer® for the duration of the experiment. At each timepoint (0, 5, 10, 20, 40, 60, or 360 minutes or 24 hours), 1.0 mL of acetonitrile containing 1% formic acid was added to one vial to terminate the reaction. Samples were stored at 4° C. until the end of the experiment. After the final timepoint is sampled, the tubes were mixed and then centrifuged at 3,000 rpm for 10 minutes. Aliquots of the supernatant were removed, diluted 1:1 into distilled water containing internal standard, and analyzed by LCMS/MS. Percent remaining at each timepoint was calculated based on the peak area response ratio of test to compound to internal standard. Time 0 was set to 100%, and all later timepoints were calculated relative to time 0. Half-lives were calculated by fitting to a first-order exponential decay equation using Graphpad.

[3] = Stability in human fecal homogenate (anaerobic); type: in vitro ADME; settings: pH 6.8, 20% human fecal homogenate, 37° C., up to 24 hours, read-out: t1/2: Human Feces anaerobic
Description: (§1) Studies were carried out in human or cynomolgus monkey fecal homogenate to evaluate gastrointestinal stability of the peptide inhibitors of the present invention.
(§2) Fecal homogenate ([…]) was prepared by adding 4 mL of growth medium (1 liter contains 2 g peptone water powder, 2 g yeast extract, 0.1 g NaCl, 0.04 g KH2PO4, 0.01 g CaCl2.6H2O, 0.01 g MgSO4.7H2O, 2 mL Tween 80, 0.5 g bile salts, 0.5 g L-cysteine HCl, 2 g NaHCO3, and 10 μL Vitamin K, pH adjusted to 6.8, and sterilized by filtration through a 0.22 μm filter) to every gram of feces (pooled freshly collected human or cynomolgus monkey feces). The suspension was vortexed to break up large clumps, and homogenized using a bead mill homogenizer. Centrifuged the homogenate at 2800×g for 15 min. The supernatant is taken out and used for incubations. DMSO stocks (10 mM) were first prepared for the test compounds. Incubations were performed in an anaerobic chamber conditioned at 37° C. Aliquots of the DMSO solutions were dosed into 1.0 mL aliquots of 20% fecal homogenate, which are pre-warmed to 37° C. The final test compound concentration was 20 μM. At each timepoint (0, 20 min, 1, 3, 6, or 24 hours), 100 μL aliquot of each incubation mixture is taken out and added to separate tubes containing 300 μL of 50% acetonitrile/50% methanol and an internal standard to terminate the reaction. Samples were taken out of the anaerobic chamber and stored at 4° C. until the end of the experiment. After the final timepoint is sampled, the tubes were mixed and then centrifuged at 3,000 rpm for 10 minutes. Aliquots of the supernatant were removed, diluted 1:1 into distilled water containing 0.1% formic acid, and analyzed by LC/MS/MS. Percent remaining at each timepoint was calculated based on the peak area response ratio of test to compound to internal standard. Time 0 was set to 100%, and all later timepoints were calculated relative to time 0. Half-lives were calculated by fitting to a first-order exponential decay equation using Graphpad or Excel.

[4] = Stability in cynomolgus monkey fecal homogenate (anaerobic); type: in vitro ADME; settings: pH 6.8, 20% cynomolgus monkey fecal homogenate, 37° C., up to 24 hours, read-out: t1/2: Monkey Feces anaerobic (converted)
Description: as §1, §2

[5] = Stability in rat plasma; type: in vitro ADME; settings: both sexes, pooled, SD rat plasma, EDTA, 37° C., up to 24 hours, read-out: t1/2: Rat Plasma EDTA
Description: Peptides of interest (20 μM) were incubated with pre-warmed rat plasma (SD rat, mixed gender pooled, EDTA, filtered through 0.22 μm, BioreclamationIVT) at 37° C. Aliquots were taken at various time points up to 24 hours (e.g. 0, 0.25, 1, 3, 6 and 24 hr), and immediately quenched with 4 volumes of organic solvent (acetonitrile/methanol (1:1) and 0.1% formic acid, containing 1 μM internal standard). Quenched samples were stored at 4° C. until the end of the experiment and centrifuged at 4,000 rpm for 10 minutes. The supernatant were diluted 1:1 with deionized water and analyzed using LC-MS. Percentage remaining at each time point was calculated based on the peak area ratio (analyte over internal standard) relative to the initial level at time zero. Half-lives were calculated by fitting to a first-order exponential decay equation using GraphPad.

[6] = molecular target: T1, interleukin-23 receptor (IL-23R), human; test: cell-based or functional assay

Molecule | IC50 [1] [nM] | half-life at 20 μM [2] [h] | half-life at 20 μM [3] [h] | half-life at 20 μM [4] [h] | half-life at 20 μM [5] [h] | SIF t1/2 [2] [h] | pStat3 HTRF IC50 (DB cells IL23R pSTAT3 cell assay, 0.5 nM IL-23) [6] [nM]
CC(=O)NCCCC[C@@H]1NC(=O)[C@H](Cc2c[nH]c3c(-c4ccccc4)cccc23)NC(=O)[C@H]([C@@H](C)O)NC(=O)[C@H](CC(N)=O)NC(=O)[C@@H](NC(C)=O)C(C)(C)SSC(C)(C)[C@@H](C(=O)N[C@@H](Cc2ccc(OCCN)cc2)C(=O)N[C@@H](Cc2ccc3ccccc3c2)C(=O)N[C@@](C)(CCCCN)C(=O)N[C@@H](CCCCNC(C)=O)C(=O)N[C@@H](CC(N)=O)C(=O)N[C@H](CC(C)C)C(N)=O)NC1=O [Peptide 1, Ac-[Pen]-N-T-[W(7-Ph)]-[Lys(Ac)]-[Pen]-Phe[4-(2-aminoethoxy)]-[2-Nal]-[a-MeLys]-[Lys(Ac)]-N-[(D)Leu]-NH2] | 4.3 | 11.1 | > 24 | > 24 | > 24 | – | –
CC(=O)NCCCC[C@@H]1NC(=O)[C@H](Cc2c[nH]c3c(-c4cccc(C)c4)cccc23)NC(=O)[C@H]([C@@H](C)O)NC(=O)[C@H](CC(N)=O)NC(=O)[C@@H](NC(C)=O)C(C)(C)SSC(C)(C)[C@@H](C(=O)N[C@@H](Cc2ccc(OCCN)cc2)C(=O)N[C@@H](Cc2ccc3ccccc3c2)C(=O)N[C@@](C)(CCCCN)C(=O)N[C@@H](CCCCNC(C)=O)C(=O)N[C@@H](CC(N)=O)C(=O)N[C@H](CCCCN)C(N)=O)NC1=O [Peptide 7, Ac-[Pen]-N-T-[W(7-(3-MePh))]-[Lys(Ac)]-[Pen]-Phe[4-(2-aminoethoxy)]-[2-Nal]-[a-MeLys]-[Lys(Ac)]-N-[(D)Lys)]-NH2] (Ac-[Pen]NT[X3]K(Ac)[Pen][AEF][2Nal][αMeK]K(Ac)N[dK]-NH2; disulfide 1-6) | 5.87 | – | > 24 | > 24 | > 24 | 24 | –
CC(=O)NCCCC[C@@H]1NC(=O)[C@H](Cc2c[nH]c3c(-c4cccc(C(F)(F)F)c4)cccc23)NC(=O)[C@H]([C@@H](C)O)NC(=O)[C@H](CC(N)=O)NC(=O)[C@@H](NC(C)=O)C(C)(C)SSC(C)(C)[C@@H](C(=O)N[C@@H](Cc2ccc(OCCN)cc2)C(=O)N[C@@H](Cc2ccc3ccccc3c2)C(=O)N[C@@](C)(CCCCN)C(=O)N[C@@H](CCCCNC(C)=O)C(=O)N[C@@H](CC(N)=O)C(=O)N[C@H](CCCCN)C(N)=O)NC1=O [Peptide 9, Ac-[Pen]-N-T-[W(7-(3-CF3Ph))]-[Lys(Ac)]-[Pen]-Phe[4-(2-aminoethoxy)]-[2-Nal]-[a-MeLys]-[Lys(Ac)]-N-[(D)Lys)]-NH2] (Ac-[Pen]NT[X1]K(Ac)[Pen][AEF][2Nal][αMeK]K(Ac)N[dK]-NH2; disulfide 1-6) | 9.3 | – | > 24 | > 24 | > 24 | 24 | –
CC(=O)NCCCC[C@@H]1NC(=O)[C@H](Cc2c[nH]c3c(-c4cccc(OC(F)(F)F)c4)cccc23)NC(=O)[C@H]([C@@H](C)O)NC(=O)[C@H](CC(N)=O)NC(=O)[C@@H](NC(C)=O)C(C)(C)SSC(C)(C)[C@@H](C(=O)N[C@@H](Cc2ccc(OCCN)cc2)C(=O)N[C@@H](Cc2ccc3ccccc3c2)C(=O)N[C@@](C)(CCCCN)C(=O)N[C@@H](CCCCNC(C)=O)C(=O)N[C@@H](CC(N)=O)C(=O)N[C@H](CCCCN)C(N)=O)NC1=O [Peptide 12, Ac-[Pen]-N-T-[W(7-(3-OCF3Ph))]-[Lys(Ac)]-[Pen]-Phe[4-(2-aminoethoxy)]-[2-Nal]-[a-MeLys]-[Lys(Ac)]-N-[(D)Lys)]-NH2] (Ac-[Pen]NT[X6]K(Ac)[Pen][AEF][2Nal][αMeK]K(Ac)N[dK]-NH2; disulfide 1-6) | – | – | > 24 | > 6 | > 24 | 24 | –
CC(=O)NCCCC[C@@H]1NC(=O)[C@H](Cc2c[nH]c3c(-c4ccccc4)cccc23)NC(=O)[C@H]([C@@H](C)O)NC(=O)[C@H](CCC(N)=O)NC(=O)[C@@H](NC(C)=O)CCSC[C@@H](C(=O)N[C@@H](Cc2ccc(OCCN)cc2)C(=O)N[C@@H](Cc2ccc3ccccc3c2)C(=O)N[C@@](C)(CCCCN)C(=O)N[C@@H](CCCCNC(C)=O)C(=O)N[C@@H](CC(N)=O)C(=O)N[C@H](CCCCN)C(N)=O)NC1=O [Peptide 19, Ac-[Abu]-Q-T-[W(7-Ph)]-[Lys(Ac)]-[Cys]-Phe[4-(2-aminoethoxy)]-[2-Nal]-[a-MeLys]-[Lys(Ac)]-N-[(D)Lys]-NH2] (Ac-[Abu(4-yl)]QT[Trp(7-Ph)]K(Ac)C[AEF][2Nal][αMeK]K(Ac)N[dK]-NH2; thioether 1-6) | – | 17.8 | > 24 | 21.8 | > 24 | – | –
Ac-[Abu]QT[Trp(7-Ph)]K(Ac)C[AEF][2Nal][αMeK]K(Ac)N[dK]-NH2 (thioether 1-6) [Peptide No. 19 (SEQ ID No. 19)] | – | – | – | – | – | – | 2.57
Ac-[Pen]NT[Trp(7-thienyl)]Q[Pen][AEF][2Nal][αMeK]K(Ac)N[dK]-NH2 (disulfide 1-6) [Peptide No. 2 (SEQ ID No. 2)] | – | – | – | – | – | – | 1.21
Ac-[dR][Abu]QT[Trp(7-Ph)]K(Ac)C[AEF][2Nal][αMeK]K(Ac)N[dL]-NH2 (thioether 2-7) [Peptide No. 3 (SEQ ID No. 3)] | – | – | – | – | – | – | 9.42
Ac-[dR][Abu]QT[Trp(7-Ph)]K(Ac)C[AEF][2Nal][αMeK]K(Ac)N-NH2 (thioether 2-7) [Peptide No. 4 (SEQ ID No. 4)] | – | – | – | – | – | – | 49.4
Ac-[dR][Abu]QT[Trp(7-Ph)]K(Ac)C[AEF][2Nal][αMeK]K(Ac)N[dK]-NH2 (thioether 2-7) [Peptide No. 5 (SEQ ID No. 5)] | – | – | – | – | – | – | 8.53
